Target: S. aureus GyrB ATPase (Staphylococcus aureus, UniProt P0A0K8)
Assay: biochemical
Conditions: compound at 1 μM; one value per test if tested more than once; 1 µM
How it was run: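 IC50 values derive from 10-point titrations of compound (in DMSO). Phosphate formed from 250 μM ATP was quantified by acidic molybdate/malachite green after quenching.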

S. aureus GyrB ATPase, sequence (P0A0K8 whole entry): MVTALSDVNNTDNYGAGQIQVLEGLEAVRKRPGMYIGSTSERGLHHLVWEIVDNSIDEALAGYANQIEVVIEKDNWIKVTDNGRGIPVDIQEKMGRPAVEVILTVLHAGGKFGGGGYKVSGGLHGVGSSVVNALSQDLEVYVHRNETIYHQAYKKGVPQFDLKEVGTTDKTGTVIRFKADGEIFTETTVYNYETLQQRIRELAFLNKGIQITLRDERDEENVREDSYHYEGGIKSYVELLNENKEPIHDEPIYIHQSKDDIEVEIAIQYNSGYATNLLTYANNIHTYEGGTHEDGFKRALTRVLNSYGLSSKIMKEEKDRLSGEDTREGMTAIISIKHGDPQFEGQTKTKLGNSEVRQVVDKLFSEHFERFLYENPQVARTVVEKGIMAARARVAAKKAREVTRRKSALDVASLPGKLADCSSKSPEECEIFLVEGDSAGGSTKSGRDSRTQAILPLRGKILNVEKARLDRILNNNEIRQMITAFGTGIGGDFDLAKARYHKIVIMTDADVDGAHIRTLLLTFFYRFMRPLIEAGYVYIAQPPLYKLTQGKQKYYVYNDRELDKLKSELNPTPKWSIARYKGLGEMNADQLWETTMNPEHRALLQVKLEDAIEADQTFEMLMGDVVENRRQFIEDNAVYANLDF
S. aureus GyrB ATPase, sequence (P0AES4 whole entry, further chain): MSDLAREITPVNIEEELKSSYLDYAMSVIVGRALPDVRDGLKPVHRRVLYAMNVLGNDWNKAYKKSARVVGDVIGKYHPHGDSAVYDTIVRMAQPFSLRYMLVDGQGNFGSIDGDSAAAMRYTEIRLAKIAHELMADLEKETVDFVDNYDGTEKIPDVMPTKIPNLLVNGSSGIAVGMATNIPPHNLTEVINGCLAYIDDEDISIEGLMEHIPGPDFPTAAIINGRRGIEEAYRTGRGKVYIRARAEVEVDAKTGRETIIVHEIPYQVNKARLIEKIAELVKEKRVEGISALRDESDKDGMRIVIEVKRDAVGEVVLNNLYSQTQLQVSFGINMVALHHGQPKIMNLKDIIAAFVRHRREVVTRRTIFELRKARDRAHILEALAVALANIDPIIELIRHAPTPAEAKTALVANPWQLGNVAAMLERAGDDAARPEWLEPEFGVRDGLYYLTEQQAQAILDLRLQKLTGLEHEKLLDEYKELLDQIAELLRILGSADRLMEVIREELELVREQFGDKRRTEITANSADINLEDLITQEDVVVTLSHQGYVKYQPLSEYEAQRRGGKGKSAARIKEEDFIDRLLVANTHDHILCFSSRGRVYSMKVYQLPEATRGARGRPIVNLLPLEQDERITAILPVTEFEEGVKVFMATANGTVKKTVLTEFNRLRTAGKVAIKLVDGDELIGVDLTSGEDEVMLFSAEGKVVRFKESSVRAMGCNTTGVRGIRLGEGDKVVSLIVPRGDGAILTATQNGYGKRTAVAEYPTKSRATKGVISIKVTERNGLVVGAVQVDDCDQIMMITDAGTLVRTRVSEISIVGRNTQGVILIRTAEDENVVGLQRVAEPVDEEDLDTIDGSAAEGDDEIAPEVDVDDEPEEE

Row | Structure (SMILES) | % Inhibition of S. aureus GyrB ATPase [%]
1 | CCCNC(=O)Nc1cc(-c2nc(C(F)(F)F)cs2)c(-c2ccc3c(c2)c(=O)c(C(=O)O)cn3CCN(C)C)cn1 [Example 152, 1-(2-(dimethylamino)ethyl)-4-oxo-6-(6-(3-propylureido)-4-(4-(trifluoromethyl)thiazol-2-yl)pyridin-3-yl)-1,4-dihydroquinoline-3-carboxylic acid] | 106

Same assay, conditions: compound at 1 μM; one value per test if tested more than once; read-out: % Inhibition of S. aureus GyrB ATPase

Row | Structure (SMILES) | inhibition at 1 µM [%]
2 | CCNC(=O)Nc1cc(-c2nc(C(F)(F)F)cs2)c(-c2ccc3c(c2)c(=O)c(C(=O)N2CCN(C(C)=O)CC2)cn3C(COC)COC)cn1 [Example 144, 1-(5-{3-[(4-acetylpiperazin-1-yl)carbonyl]-1-(1,3-dimethoxypropan-2-yl)-4-oxo-1,4-dihydroquinolin-6-yl}-4-[4-(trifluoromethyl)-1,3-thiazol-2-yl]pyridin-2-yl)-3-ethylurea] | 94
3 | CCNC(=O)Nc1cc(-c2nc(C(F)(F)F)cs2)c(-c2ccc3c(c2)c(=O)c(C(=O)N2CCN(S(C)(=O)=O)CC2)cn3C(COC)COC)cn1 [Example 145, 1-{5-[1-(1,3-dimethoxypropan-2-yl)-3-{[4-(methylsulfonyl)piperazin-1-yl]carbonyl}-4-oxo-1,4-dihydroquinolin-6-yl]-4-[4-(trifluoromethyl)-1,3-thiazol-2-yl]pyridin-2-yl}-3-ethylurea] | 92
4 | CCNC(=O)Nc1cc(-c2nc(C(F)(F)F)cs2)c(-c2ccc3c(c2)c(=O)c(C(=O)NCCCO)cn3C2CC2)cn1 [Example 147, 1-cyclopropyl-6-(6-(3-ethylureido)-4-(4-(trifluoromethyl)thiazol-2-yl)pyridin-3-yl)-N-(3-hydroxypropyl)-4-oxo-1,4-dihydroquinoline-3-carboxamide] | 102
5 | CCNC(=O)Nc1cc(-c2nc(C(F)(F)F)cs2)c(-c2ccc3c(c2)c(=O)c(C(=O)NCCO)cn3C(COC)COC)cn1 [Example 148, 1-(1,3-dimethoxypropan-2-yl)-6-(6-(3-ethylureido)-4-(4-(trifluoromethyl)thiazol-2-yl)pyridin-3-yl)-N-(2-hydroxyethyl)-4-oxo-1,4-dihydroquinoline-3-carboxamide] | 93
6 | CCNC(=O)Nc1cc(-c2nc(C(F)(F)F)cs2)c(-c2ccc3c(c2)c(=O)c(C(=O)NCCCO)cn3C(COC)COC)cn1 [Example 149, 1-(1,3-dimethoxypropan-2-yl)-6-(6-(3-ethylureido)-4-(4-(trifluoromethyl)thiazol-2-yl)pyridin-3-yl)-N-(3-hydroxypropyl)-4-oxo-1,4-dihydroquinoline-3-carboxamide] | 93
7 | CCCNC(=O)Nc1cc(-c2nc(C(F)(F)F)cs2)c(-c2ccc3c(c2)c(=O)c(C(=O)O)cn3CCN(C)C)cn1 [Example 152, 1-(2-(dimethylamino)ethyl)-4-oxo-6-(6-(3-propylureido)-4-(4-(trifluoromethyl)thiazol-2-yl)pyridin-3-yl)-1,4-dihydroquinoline-3-carboxylic acid] | 95
8 | CCCNC(=O)Nc1cc(-c2nc(C(F)(F)F)cs2)c(-c2ccc3c(c2)c(=O)c(C(=O)O)cn3C2CN(C)C2)cn1 [Example 153, 1-(1-methylazetidin-3-yl)-4-oxo-6-(6-(3-propylureido)-4-(4-(trifluoromethyl)thiazol-2-yl)pyridin-3-yl)-1,4-dihydroquinoline-3-carboxylic acid] | 105
9 | CCCNC(=O)Nc1cc(-c2nc(C(F)(F)F)cs2)c(-c2ccc3c(c2)c(=O)c(C(=O)N2CCN(S(=O)(=O)N(C)C)CC2)cn3CCN(C)C)cn1 [Example 154, 4-(1-(2-(dimethylamino)ethyl)-4-oxo-6-(6-(3-propylureido)-4-(4-(trifluoromethyl)thiazol-2-yl)pyridin-3-yl)-1,4-dihydroquinoline-3-carbonyl)-N,N-dimethylpiperazine-1-sulfonamide] | 107
10 | CCNC(=O)Nc1cc(-c2nc(C(F)(F)F)cs2)c(-c2ccc3c(c2)c(=O)c(C(=O)N2CCN(C)CC2)cn3CCN(C)C)cn1 [Example 155, 1-(5-(1-(2-(dimethylamino)ethyl)-3-(4-methylpiperazine-1-carbonyl)-4-oxo-1,4-dihydroquinolin-6-yl)-4-(4-(trifluoromethyl)thiazol-2-yl)pyridin-2-yl)-3-ethylurea] | 94
11 | CCCNC(=O)Nc1cc(-c2nc(C(F)(F)F)cs2)c(-c2ccc3c(c2)c(=O)c(C(=O)N2CCN(C)CC2)cn3CCN(C)C)cn1 [Example 156, 1-(5-(1-(2-(dimethylamino)ethyl)-3-(4-methylpiperazine-1-carbonyl)-4-oxo-1,4-dihydroquinolin-6-yl)-4-(4-(trifluoromethyl)thiazol-2-yl)pyridin-2-yl)-3-propylurea] | 105
12 | CCCNC(=O)Nc1cc(-c2nc(C(F)(F)F)cs2)c(-c2ccc3c(c2)c(=O)c(C(=O)N2CCN(S(C)(=O)=O)CC2)cn3CCN(C)C)cn1 [Example 157, 1-(5-(1-(2-(dimethylamino)ethyl)-3-(4-(methylsulfonyl)piperazine-1-carbonyl)-4-oxo-1,4-dihydroquinolin-6-yl)-4-(4-(trifluoromethyl)thiazol-2-yl)pyridin-2-yl)-3-propylurea] | 103
13 | CCNC(=O)Nc1cc(-c2nc(C(F)(F)F)cs2)c(-c2ccc3c(c2)c(=O)c(C(=O)N2CCNCC2)cn3CCN(C)C)cn1 [Example 158, 1-(5-(1-(2-(dimethylamino)ethyl)-4-oxo-3-(piperazine-1-carbonyl)-1,4-dihydroquinolin-6-yl)-4-(4-(trifluoromethyl)thiazol-2-yl)pyridin-2-yl)-3-ethylurea] | 106
14 | CCNC(=O)Nc1cc(-c2nc(C(F)(F)F)cs2)c(-c2ccc3c(c2)c(=O)c(C(=O)N2CCN(S(=O)(=O)N(C)C)CC2)cn3CCN(C)C)cn1 [Example 159, 4-(1-(2-(dimethylamino)ethyl)-6-(6-(3-ethylureido)-4-(4-(trifluoromethyl)thiazol-2-yl)pyridin-3-yl)-4-oxo-1,4-dihydroquinoline-3-carbonyl)-N,N-dimethylpiperazine-1-sulfonamide] | 105
15 | CCCNC(=O)Nc1cc(-c2nc(C(F)(F)F)cs2)c(-c2ccc3c(c2)c(=O)c(C(=O)N2CCN(C(C)=O)CC2)cn3CCN(C)C)cn1 [Example 160, 1-(5-(3-(4-acetylpiperazine-1-carbonyl)-1-(2-(dimethylamino)ethyl)-4-oxo-1,4-dihydroquinolin-6-yl)-4-(4-(trifluoromethyl)thiazol-2-yl)pyridin-2-yl)-3-propylurea] | 103
16 | CCCNC(=O)Nc1cc(-c2nc(C(F)(F)F)cs2)c(-c2ccc3c(c2)c(=O)c(C(=O)N2CCNCC2)cn3CCN(C)C)cn1 [Example 161, 1-(5-(1-(2-(dimethylamino)ethyl)-4-oxo-3-(piperazine-1-carbonyl)-1,4-dihydroquinolin-6-yl)-4-(4-(trifluoromethyl)thiazol-2-yl)pyridin-2-yl)-3-propylurea] | 101
17 | CCNC(=O)Nc1cc(-c2nc(C(F)(F)F)cs2)c(-c2ccc3c(c2)c(=O)c(C(=O)N2CCN(C(C)=O)CC2)cn3CCN(C)C)cn1 [Example 162, 1-(5-(3-(4-acetylpiperazine-1-carbonyl)-1-(2-(dimethylamino)ethyl)-4-oxo-1,4-dihydroquinolin-6-yl)-4-(4-(trifluoromethyl)thiazol-2-yl)pyridin-2-yl)-3-ethylurea] | 106
18 | CCNC(=O)Nc1cc(-c2nc(C(F)(F)F)cs2)c(-c2ccc3c(c2)c(=O)c(C(=O)N2CCN(S(C)(=O)=O)CC2)cn3C2CN(C)C2)cn1 [Example 163, 1-ethyl-3-(5-(1-(1-methylazetidin-3-yl)-3-(4-(methylsulfonyl)piperazine-1-carbonyl)-4-oxo-1,4-dihydroquinolin-6-yl)-4-(4-(trifluoromethyl)thiazol-2-yl)pyridin-2-yl)urea] | 106
